This note sets out measurements from ChEMBL document CHEMBL2062364, “Discovery and optimization of new benzimidazole- and benzoxazole-pyrimidone selective PI3Kβ inhibitors for the treatment of phosphatase and TENsin homologue (PTEN)-deficient cancers” (J Med Chem, 2012).

The structures appear in SMILES notation. In brackets after ≈: the same amount, converted by molar mass. A value given as a limit tells only on which side of the number the result lay.

The target of series [1] is T1, Phosphatidylinositol 4,5-bisphosphate 3-kinase catalytic subunit alpha isoform (Homo sapiens, UniProt P42336). The series is described as follows: Inhibition of N-terminus poly-His tagged human PI3Kalpha expressed in baculovirus infected insect sf9 cells coexpressing p85alpha using PI(4,5)P2 as substrate preincubated with compound for 15 mins measured after 10 mins by HTRF assay.
T1 sequence (P42336 whole entry, canonical isoform): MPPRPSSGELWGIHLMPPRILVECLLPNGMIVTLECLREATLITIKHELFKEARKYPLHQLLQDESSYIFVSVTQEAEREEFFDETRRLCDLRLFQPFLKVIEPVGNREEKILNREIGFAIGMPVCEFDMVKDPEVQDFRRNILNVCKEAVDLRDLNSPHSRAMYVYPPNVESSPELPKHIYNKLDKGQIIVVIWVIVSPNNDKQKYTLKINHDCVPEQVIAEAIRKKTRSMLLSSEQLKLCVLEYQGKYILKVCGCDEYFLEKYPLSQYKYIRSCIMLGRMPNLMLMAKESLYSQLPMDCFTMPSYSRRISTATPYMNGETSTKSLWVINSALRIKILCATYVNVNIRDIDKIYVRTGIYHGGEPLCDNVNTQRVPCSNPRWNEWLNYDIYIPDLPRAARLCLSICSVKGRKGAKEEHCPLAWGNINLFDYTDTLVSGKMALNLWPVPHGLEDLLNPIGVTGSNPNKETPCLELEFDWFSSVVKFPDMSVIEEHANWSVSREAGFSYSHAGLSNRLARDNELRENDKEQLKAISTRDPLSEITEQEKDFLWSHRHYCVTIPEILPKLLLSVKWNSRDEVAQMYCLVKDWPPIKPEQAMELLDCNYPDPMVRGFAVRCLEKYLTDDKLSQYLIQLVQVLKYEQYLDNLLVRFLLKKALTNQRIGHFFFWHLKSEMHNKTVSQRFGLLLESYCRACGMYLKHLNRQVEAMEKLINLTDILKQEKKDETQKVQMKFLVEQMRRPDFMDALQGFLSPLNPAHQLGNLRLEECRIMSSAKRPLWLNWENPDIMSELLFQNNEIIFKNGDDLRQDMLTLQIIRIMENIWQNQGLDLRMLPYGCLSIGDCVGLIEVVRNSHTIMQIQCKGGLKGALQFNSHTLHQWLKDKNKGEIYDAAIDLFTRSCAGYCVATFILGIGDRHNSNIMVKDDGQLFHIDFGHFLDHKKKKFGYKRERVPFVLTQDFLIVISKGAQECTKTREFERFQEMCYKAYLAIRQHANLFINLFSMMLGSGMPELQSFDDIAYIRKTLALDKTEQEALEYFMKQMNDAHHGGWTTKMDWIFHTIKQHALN

Series [2] deals with T2, Phosphatidylinositol 4,5-bisphosphate 3-kinase catalytic subunit gamma isoform (Homo sapiens, UniProt P48736). The series is described as follows: Inhibition of human PI3Kgamma-mediated Akt phosphorylation at Ser473 residue expressed in mouse RAW264.7 cells after 0.5 to 2 hrs by Western blot analysis. Type of series: cell-based.
T2 sequence (P48736 whole entry, canonical isoform): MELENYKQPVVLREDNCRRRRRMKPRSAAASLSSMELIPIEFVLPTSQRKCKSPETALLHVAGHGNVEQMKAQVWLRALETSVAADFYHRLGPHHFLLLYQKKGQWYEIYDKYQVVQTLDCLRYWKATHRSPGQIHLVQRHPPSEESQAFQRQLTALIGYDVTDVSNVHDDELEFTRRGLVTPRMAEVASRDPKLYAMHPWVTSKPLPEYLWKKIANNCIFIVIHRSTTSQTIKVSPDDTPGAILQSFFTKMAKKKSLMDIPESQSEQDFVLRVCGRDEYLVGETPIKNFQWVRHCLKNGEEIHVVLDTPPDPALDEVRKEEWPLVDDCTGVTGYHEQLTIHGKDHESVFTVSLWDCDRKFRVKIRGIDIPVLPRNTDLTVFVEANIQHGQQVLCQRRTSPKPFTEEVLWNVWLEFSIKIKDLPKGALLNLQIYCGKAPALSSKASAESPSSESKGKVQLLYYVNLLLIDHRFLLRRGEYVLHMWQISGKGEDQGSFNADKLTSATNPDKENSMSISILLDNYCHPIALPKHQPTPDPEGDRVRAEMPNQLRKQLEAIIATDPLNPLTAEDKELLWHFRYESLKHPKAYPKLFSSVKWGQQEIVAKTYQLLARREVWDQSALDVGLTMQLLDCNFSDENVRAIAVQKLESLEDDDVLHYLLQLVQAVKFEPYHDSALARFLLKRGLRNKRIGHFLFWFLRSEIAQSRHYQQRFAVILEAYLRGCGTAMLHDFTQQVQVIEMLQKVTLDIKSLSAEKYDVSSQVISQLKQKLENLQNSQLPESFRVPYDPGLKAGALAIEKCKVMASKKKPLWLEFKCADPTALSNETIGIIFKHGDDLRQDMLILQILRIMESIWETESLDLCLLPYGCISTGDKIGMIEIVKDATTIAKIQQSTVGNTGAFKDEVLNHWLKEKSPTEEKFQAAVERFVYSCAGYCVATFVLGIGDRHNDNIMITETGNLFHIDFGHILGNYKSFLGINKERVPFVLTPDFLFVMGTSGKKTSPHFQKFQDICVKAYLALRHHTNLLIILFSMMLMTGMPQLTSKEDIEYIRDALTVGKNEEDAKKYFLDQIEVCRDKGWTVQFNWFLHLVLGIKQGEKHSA
The target in series [3] is T2, Phosphatidylinositol 4,5-bisphosphate 3-kinase catalytic subunit gamma isoform. The series is described as follows: Inhibition of N-terminus poly-His tagged human PI3Kgamma expressed in baculovirus infected insect sf9 cells using PI(4,5)P2 as substrate preincubated with compound for 15 mins measured after 10 mins by HTRF assay.
The target of series [4] is T3, Phosphatidylinositol 4,5-bisphosphate 3-kinase catalytic subunit delta isoform (Homo sapiens, UniProt O00329).
T3 sequence (O00329 whole entry): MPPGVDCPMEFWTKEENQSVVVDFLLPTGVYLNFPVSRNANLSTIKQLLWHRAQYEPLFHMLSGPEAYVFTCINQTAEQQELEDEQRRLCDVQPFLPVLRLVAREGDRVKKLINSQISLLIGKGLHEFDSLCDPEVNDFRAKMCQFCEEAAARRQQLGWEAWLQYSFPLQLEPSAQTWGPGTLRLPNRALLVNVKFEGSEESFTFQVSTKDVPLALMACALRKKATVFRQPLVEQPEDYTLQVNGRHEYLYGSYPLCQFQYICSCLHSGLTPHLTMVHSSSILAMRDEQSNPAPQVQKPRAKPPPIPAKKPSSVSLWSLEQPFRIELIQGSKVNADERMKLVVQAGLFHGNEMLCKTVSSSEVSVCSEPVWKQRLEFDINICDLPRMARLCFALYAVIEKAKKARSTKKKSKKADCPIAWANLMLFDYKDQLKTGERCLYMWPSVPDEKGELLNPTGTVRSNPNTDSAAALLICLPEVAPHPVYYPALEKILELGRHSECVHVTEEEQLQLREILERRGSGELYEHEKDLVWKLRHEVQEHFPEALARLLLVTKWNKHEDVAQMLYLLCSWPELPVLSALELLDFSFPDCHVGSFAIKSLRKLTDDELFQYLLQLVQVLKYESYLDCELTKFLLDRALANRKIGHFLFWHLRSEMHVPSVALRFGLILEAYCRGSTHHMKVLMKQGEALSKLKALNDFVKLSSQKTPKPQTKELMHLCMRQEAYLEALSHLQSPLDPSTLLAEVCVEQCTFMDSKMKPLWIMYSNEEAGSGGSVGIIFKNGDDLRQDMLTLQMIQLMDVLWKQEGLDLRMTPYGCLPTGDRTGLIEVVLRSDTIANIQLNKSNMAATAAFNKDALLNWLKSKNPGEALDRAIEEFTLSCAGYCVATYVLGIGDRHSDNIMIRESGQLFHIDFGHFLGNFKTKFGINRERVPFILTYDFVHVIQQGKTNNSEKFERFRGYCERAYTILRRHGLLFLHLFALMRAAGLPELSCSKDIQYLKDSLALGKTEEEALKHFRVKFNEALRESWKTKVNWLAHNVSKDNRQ
As to the kind of experiment: Inhibition of poly-His tagged human PI3Kdelta expressed in baculovirus infected insect sf9 cells coexpressing p85alpha using PI(4,5)P2 as substrate preincubated with compound for 15 mins measured after 10 mins by HTRF assay.

In series [5] the target is T3, Phosphatidylinositol 4,5-bisphosphate 3-kinase catalytic subunit delta isoform. As to the kind of experiment: Inhibition of human PI3Kdelta-mediated Akt phosphorylation at Ser473 residue expressed in mouse MEF-3T3 cells after 0.5 to 2 hrs by Western blot analysis. The series is classed as cell-based.
Series [6] addresses T1, Phosphatidylinositol 4,5-bisphosphate 3-kinase catalytic subunit alpha isoform. The series is described as follows: Inhibition of human PI3Kalpha-mediated Akt phosphorylation at Ser473 residue expressed in human H460 cells after 0.5 to 2 hrs by Western blot analysis. Type of series: cell-based.
Series [7] in a line: Inhibition of mTORC2-mediated Akt phosphorylation at Ser473 residue in PTEN-deficient human PC3 cells after 2 hrs by Western blot analysis. Type of series: cell-based. As to conditions: PC-3, 2 h.
The nature of series [8]: Thermodynamic solubility of the compound in phosphate buffer at pH 7.4 after 16 hrs by HPLC analysis. Type of series: physicochemical. As to conditions: read-out: Therm_solubility.
Series [9] concerns the target T4, Phosphatidylinositol 4,5-bisphosphate 3-kinase catalytic subunit beta isoform (Homo sapiens, UniProt P42338). The series is described as follows: Inhibition of human PI3Kbeta-mediated Akt phosphorylation at T308 residue expressed in PTEN-deficient human PC3 cells after 2 hrs by Western blot analysis. The series is classed as cell-based, PC-3.
Series [10] has as its target T4, Phosphatidylinositol 4,5-bisphosphate 3-kinase catalytic subunit beta isoform. The series is described as follows: Inhibition of human PI3Kbeta-mediated Akt phosphorylation at Ser473 residue expressed in PTEN-deficient human PC3 cells by chemiluminescence assay. Type of series: cell-based, PC-3.
In another series the target is Cytochrome P450 3A4 (Homo sapiens, UniProt P08684). The series is described as follows: Inhibition of human recombinant CPY3A4.
Chain of Cytochrome P450 3A4 (P08684 whole entry): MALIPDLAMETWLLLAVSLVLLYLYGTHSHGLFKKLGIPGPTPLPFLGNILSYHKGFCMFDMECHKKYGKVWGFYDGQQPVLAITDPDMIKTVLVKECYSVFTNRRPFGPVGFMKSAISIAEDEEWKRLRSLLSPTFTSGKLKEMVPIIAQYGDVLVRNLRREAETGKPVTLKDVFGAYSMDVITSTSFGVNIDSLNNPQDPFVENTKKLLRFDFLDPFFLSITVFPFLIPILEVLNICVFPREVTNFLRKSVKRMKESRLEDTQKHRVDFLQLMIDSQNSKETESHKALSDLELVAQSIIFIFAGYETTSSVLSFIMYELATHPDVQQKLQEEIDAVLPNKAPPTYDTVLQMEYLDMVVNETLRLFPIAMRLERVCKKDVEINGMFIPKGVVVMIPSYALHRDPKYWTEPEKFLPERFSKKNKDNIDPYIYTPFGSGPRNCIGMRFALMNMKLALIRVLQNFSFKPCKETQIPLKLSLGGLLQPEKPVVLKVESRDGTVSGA
Series [11] is described as follows: Drug metabolism in human liver microsomes. The series is classed as ADME, Microsome. As to conditions: read-out: Drug metabolism.
Series [12] is described as follows: Drug metabolism in mouse liver microsomes. The series is classed as ADME, Microsome. As to conditions: read-out: Drug metabolism.
Series [13] is described as follows: Apparent permeability of the compound across human Caco2 cells. Type of series: ADME, cell-based. The settings on record: Caco-2.
The target in series [14] is Serine/threonine-protein kinase mTOR (Homo sapiens, UniProt P42345). The series is described as follows: Inhibition of mTOR.
For series [15], the target named is T4, Phosphatidylinositol 4,5-bisphosphate 3-kinase catalytic subunit beta isoform. As to the kind of experiment: Inhibition of N-terminus poly-His tagged human PI3Kbeta expressed in baculovirus infected insect […] cells coexpressing p85alpha using PI(4,5)P2 as substrate preincubated with compound for 15 mins measured after 10 mins by HTRF assay.

T4 sequence (P42338 whole entry, canonical isoform): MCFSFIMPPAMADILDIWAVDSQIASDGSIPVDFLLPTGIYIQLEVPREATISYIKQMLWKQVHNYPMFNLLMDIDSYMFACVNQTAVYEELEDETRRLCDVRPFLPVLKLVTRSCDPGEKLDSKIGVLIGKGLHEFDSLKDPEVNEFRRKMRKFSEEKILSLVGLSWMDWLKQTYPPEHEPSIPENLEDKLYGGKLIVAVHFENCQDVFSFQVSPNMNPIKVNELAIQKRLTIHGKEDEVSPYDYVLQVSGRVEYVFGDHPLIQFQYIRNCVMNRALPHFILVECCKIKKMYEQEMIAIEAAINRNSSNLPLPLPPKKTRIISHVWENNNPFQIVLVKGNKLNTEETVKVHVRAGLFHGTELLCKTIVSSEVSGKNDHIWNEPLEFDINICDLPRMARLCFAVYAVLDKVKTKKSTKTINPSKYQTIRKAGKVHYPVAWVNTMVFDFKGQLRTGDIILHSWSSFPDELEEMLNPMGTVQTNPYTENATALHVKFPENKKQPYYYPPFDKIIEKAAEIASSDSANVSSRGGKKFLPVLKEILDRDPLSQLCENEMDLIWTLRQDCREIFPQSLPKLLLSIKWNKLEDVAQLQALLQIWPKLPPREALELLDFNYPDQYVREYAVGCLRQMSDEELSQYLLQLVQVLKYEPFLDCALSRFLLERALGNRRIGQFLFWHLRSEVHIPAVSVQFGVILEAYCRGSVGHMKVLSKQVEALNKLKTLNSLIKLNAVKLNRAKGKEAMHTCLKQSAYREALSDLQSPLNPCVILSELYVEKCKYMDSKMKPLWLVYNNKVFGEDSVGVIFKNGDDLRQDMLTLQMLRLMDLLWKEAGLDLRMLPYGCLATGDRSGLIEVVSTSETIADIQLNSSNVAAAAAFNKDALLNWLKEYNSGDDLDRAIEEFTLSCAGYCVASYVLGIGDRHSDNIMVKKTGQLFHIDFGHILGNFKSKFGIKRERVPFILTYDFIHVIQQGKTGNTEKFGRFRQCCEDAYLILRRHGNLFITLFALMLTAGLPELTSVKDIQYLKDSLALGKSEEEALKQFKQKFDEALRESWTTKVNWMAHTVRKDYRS

With `Cc1cc(C(C)Nc2ccccc2)c2nc(N3CCOCC3)cc(=O)n2c1` (stereo not given), the IC50 was > 10000 nM in series [1]; > 1000 nM in [2]; > 10000 nM in series [3]; 851 nM in series [4]; 252 nM in [5]; > 1000 nM in series [6]. The compound also displayed an IC50 in [7] of 10 nM.

Regarding `O=c1cc(N2CCOCC2)nc(Cc2nc3ccc(F)cc3[nH]2)[nH]1`, in series [8], the solubility thermodynamic at 16 h came out at 76 µM (≈ 25 µg/mL). Besides, the IC50 was > 10000 nM in series [1]; 100 nM in [9]; 41 nM in series [10]; > 40000 nM on Cytochrome P450 3A4; > 10000 nM in series [3]; 219 nM in series [4]. Further, the results for the IC50 in series [14], in series [15] and in [7] were > 10000 nM, 30 nM and 41 nM, respectively. For the same compound, the results for the metabolised in series [11] and in [12] were 69% and 0%, respectively. Besides, in [13], the Papp stood at 0.2 ×10⁻⁶ cm/s.
